From patent US5827715A, “Heat resistant maltose phosphorylase, process for preparation thereof, bacteria used for preparation thereof, and methods for using the enzyme” (Showa Sangyo Co., Ltd., priority 1995, dated 1998)
Read-outs that look alike come from different tables or passages of the source.

Legend:
[1] = biological target: T1, heat resistant trehalose phosphorylase (Geobacillus stearothermophilus, UniProt Q8GRC3); assay: Substrate specificity of heat resistant trehalose phosphorylase (phosphorolysis reaction, glucose formed); assay type: biochemical, Bacillus stearothermophilus SK-1; parameters: Relative activity (%): concentration or dose not given beside the values; conditions: for Relative activity (%): each substance as substrate of phosphorolysis by heat resistant trehalose phosphorylase, trehalose = 100; for formation of glucose: phosphorolysis reaction with the substance as substrate, heat resistant trehalose phosphorylase
T1 construct: heat resistant trehalose phosphorylase which Bacillus stearothermophilus SK-1 found by the present inventors produces; made in house; host or cells: Bacillus stearothermophilus SK-1 (FERM BP-5594), the producing strain itself
T1 sequence (Q8GRC3 whole entry, change not shown): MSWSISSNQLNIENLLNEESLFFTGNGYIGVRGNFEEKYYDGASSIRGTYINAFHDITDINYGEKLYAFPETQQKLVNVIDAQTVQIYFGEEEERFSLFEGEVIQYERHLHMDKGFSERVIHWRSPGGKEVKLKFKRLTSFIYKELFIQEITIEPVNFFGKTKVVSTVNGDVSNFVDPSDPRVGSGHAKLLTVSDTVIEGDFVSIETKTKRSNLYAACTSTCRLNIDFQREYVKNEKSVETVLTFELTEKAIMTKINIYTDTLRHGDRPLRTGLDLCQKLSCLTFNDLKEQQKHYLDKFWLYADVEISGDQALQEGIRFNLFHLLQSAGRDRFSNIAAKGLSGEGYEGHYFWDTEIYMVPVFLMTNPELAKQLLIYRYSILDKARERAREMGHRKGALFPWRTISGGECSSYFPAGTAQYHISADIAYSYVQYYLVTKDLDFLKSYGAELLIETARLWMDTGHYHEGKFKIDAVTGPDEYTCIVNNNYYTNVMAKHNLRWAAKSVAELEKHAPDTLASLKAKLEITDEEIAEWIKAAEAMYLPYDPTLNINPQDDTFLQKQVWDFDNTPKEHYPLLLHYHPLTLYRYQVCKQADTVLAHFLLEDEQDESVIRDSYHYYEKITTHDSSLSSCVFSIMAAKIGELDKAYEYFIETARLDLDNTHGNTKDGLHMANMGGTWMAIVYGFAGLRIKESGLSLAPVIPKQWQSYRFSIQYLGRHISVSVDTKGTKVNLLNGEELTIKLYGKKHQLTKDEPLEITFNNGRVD
Description: As the heat resistant maltose phosphorylase in the above process, there can be used the same ones as in the above process for preparation of β-glucose-1-phosphoric acid can be used. As the heat resistant trehalose phosphorylase, any one can be used so long as it can produce trehalose from maltose and phosphoric acid or a phosphate salt at one of the above reaction temperatures and at one of the above pH values, with the aid of the heat resistant maltose phosphorylase. However, there can, preferably, be used heat resistant trehalose phosphorylase having an activity of 95% or more of the one untreated after treated in a buffer of pH 6.0, at one temperature of 50° to 65° C., preferably at one temperature of 55° to 65° C., further preferably at one temperature of 60° to 65° C., particularly preferably at 65° C., for 15 minutes. As an example of heat resistant trehalose phosphorylase having such a property, there can be mentioned heat resistant trehalose phosphorylase which Bacillus stearothermophilus SK-1 found by the present inventors produces. The SK-1 strain was first deposited on Sep. 29, 1994 with National Institute of Bioscience and Human Technology, Agency of Industrial Science and Technology, the Ministry of International Trade and Industry, Japan under an accession number of FERM P-14567, and then transferred there to deposit according to Budapest Treaty on microorganisms on Jul. 17, 1996, and is assigned an accession number of FERM BP-5594. An example of preparation of the above heat resistant trehalose phosphorylase is shown in Example 4 (crude enzyme) and Reference example 1 (purified enzyme). The enzymological properties of this purified enzyme are as follows.
(§1) In this connection, trehalose phosphorylase activity was assayed by the following method. An enzyme solution (0.4 ml), 0.06 ml of 0.5M potassium phosphate-citric acid buffer (pH 6.0), 0.6 ml of 2 w/v % trehalose and 0.14 ml of distilled water were mixed, and reaction was carried out at 60° C. for 20 minutes and ceased by boiling for 10 minutes. Then, 0.02 ml of a sample was taken from the reaction-ceased solution, 3 ml of a reagent for glucose examination (Glucose CII-Test Wako; Wako Pure Chemical Industries, Ltd.) was added, reaction was carried out at room temperature for 20 minutes, the absorbance at 505 nm was measured using a spectrophotometer, and the amount of glucose formed in the reaction solution was determined from the measured value. As to the definition of the trehalose phosphorylase activity, the amount of the enzyme necessitated to phosphorolyze 1 μmol of trehalose in one minute under the above assay conditions was assumed to be 1 unit.

[2] = biological target: T2, heat resistant maltose phosphorylase (Bacillus sp. RK-1, UniProt Q84IX5); assay: Substrate specificity of heat resistant maltose phosphorylase (phosphorolysis reaction, glucose formed); assay type: biochemical; parameters: Relative activity (%): concentration or dose not given beside the values; conditions: for Relative activity (%): each substance as substrate of phosphorolysis by heat resistant maltose phosphorylase, maltose = 100; for formation of glucose: phosphorolysis reaction with the substance as substrate, heat resistant maltose phosphorylase
T2 sequence (Q84IX5 entry or part of it, change not shown): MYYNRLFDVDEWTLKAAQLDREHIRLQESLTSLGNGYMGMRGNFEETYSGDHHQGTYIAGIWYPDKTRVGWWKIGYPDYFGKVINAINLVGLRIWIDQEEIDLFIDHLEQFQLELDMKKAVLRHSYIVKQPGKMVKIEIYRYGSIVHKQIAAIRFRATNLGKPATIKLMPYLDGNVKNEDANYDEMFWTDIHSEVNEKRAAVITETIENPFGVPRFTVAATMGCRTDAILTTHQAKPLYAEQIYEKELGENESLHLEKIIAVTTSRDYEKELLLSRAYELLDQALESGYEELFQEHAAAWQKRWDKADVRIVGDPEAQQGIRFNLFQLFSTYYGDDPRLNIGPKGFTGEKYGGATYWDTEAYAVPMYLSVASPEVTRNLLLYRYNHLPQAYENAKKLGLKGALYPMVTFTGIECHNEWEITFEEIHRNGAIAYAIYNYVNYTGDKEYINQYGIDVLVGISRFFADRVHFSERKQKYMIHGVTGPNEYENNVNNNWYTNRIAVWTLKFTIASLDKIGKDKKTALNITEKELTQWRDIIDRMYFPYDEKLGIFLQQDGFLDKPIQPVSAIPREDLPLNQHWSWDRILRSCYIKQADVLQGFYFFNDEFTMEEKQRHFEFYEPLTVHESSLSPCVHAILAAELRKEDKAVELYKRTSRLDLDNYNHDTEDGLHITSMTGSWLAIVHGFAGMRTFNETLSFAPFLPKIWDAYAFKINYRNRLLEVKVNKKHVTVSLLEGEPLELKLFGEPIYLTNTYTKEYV
Experimental: (§2) The enzymological properties of the heat resistant maltose phosphorylase of the invention are as follows. As the heat resistant maltose phosphorylase,one obtained in Example 1 and prepared from Bacillus sp. RK-1 was used.
(§3) In this connection, maltose phosphorylase activity was assayed according to the following method. An enzyme solution (0.4 ml), 0.06 ml of 0.5M potassium phosphate-citric acid buffer (pH 6.0), 0.6 ml of 2 w/v % maltose and 0.14 ml of distilled water were mixed, and reaction was carried out at 60° C. for 15 minutes and ceased by boiling for 10 minutes. Then, 0.02 ml of a sample was taken from the reaction-ceased solution, 3 ml of a reagent for glucose examination (Glucose CII-Test Wako; Wako Pure Chemical Industries, Ltd.) was added, reaction was carried at room temperature for 20 minutes, the absorbance at 505 nm was measured using a spectrophotometer, and the amount of glucose formed in the reaction solution was determined from the measured value. From the amount of the formed glucose, the amount of the enzyme necessitated to phosphorolyze 1 μmol of maltose in one minute is calculated, and was assumed to be 1 unit.

[3] = biological target: T2, heat resistant maltose phosphorylase; assay: Inhibitor test on heat resistant maltose phosphorylase activity; assay type: biochemical; conditions: for inhibition of the activity: 1 mM inhibitor, heat resistant maltose phosphorylase; for activity at 1000 µM: read-out: Relative activity (%)
Experimental: as §2, §3

[4] = biological target: T1, heat resistant trehalose phosphorylase; assay: biochemical; assay type: biochemical, Bacillus stearothermophilus SK-1; conditions: for inhibition of the activity: 1 mM inhibitor, heat resistant trehalose phosphorylase; for activity at 1000 µM: read-out: Relative activity (%)
Description: As the heat resistant maltose phosphorylase in the above process, there can be used the same ones as in the above process for preparation of β-glucose-1-phosphoric acid can be used. As the heat resistant trehalose phosphorylase, any one can be used so long as it can produce trehalose from maltose and phosphoric acid or a phosphate salt at one of the above reaction temperatures and at one of the above pH values, with the aid of the heat resistant maltose phosphorylase. […] The SK-1 strain was first deposited on Sep. 29, 1994 with National Institute of Bioscience and Human Technology, Agency of Industrial Science and Technology, the Ministry of International Trade and Industry, Japan under an accession number of FERM P-14567, and then transferred there to deposit according to Budapest Treaty on microorganisms on Jul. 17, 1996, and is assigned an accession number of FERM BP-5594. An example of preparation of the above heat resistant trehalose phosphorylase is shown in Example 4 (crude enzyme) and Reference example 1 (purified enzyme).
as §1

[5] = maltose phosphorylase activity with 1 mM inhibitor, no addition = 100
[6] = trehalose phosphorylase activity with 1 mM inhibitor, no addition = 100

OC[C@H]1O[C@@](CO)(O[C@H]2O[C@H](CO)[C@@H](O)[C@H](O)[C@H]2O)[C@@H](O)[C@@H]1O [Sucrose]
Relative activity (%) [1]: 1% | formation of glucose [1]: scarcely observed | Relative activity (%) [2]: 0% | formation of glucose [2]: scarcely observed

[Cl][Hg][Cl] [HgCl2]
inhibition of the activity [3]: 99% | Relative activity (%) [3, 5]: 1% | inhibition of the activity [4]: 99% | Relative activity (%) [4, 6]: 1%

OCCS [Mercaptoethanol]
activity at 1000 µM [3, 5]: 94% | activity at 1000 µM [4, 6]: 96%

O=[N+]([O-])c1ccc(O[C@@H]2O[C@H](CO)[C@@H](O)[C@H](O)[C@H]2O)cc1 [D - glucosideyl - β, p-nitrophenyl-β-D-glucoside]
Relative activity (%) [1]: 2% | formation of glucose [1]: scarcely observed | Relative activity (%) [2]: 0% | formation of glucose [2]: scarcely observed

OC[C@H]1O[C@@H](O[C@H]2[C@H](O)[C@@H](O)C(O)O[C@@H]2CO)[C@H](O)[C@@H](O)[C@H]1O (stereo partly drawn) [Lactose]
Relative activity (%) [2]: 0%

Soluble starch
Relative activity (%) [2]: 2%

O=C(O)CN(CCN(CC(=O)O)CC(=O)O)CC(=O)O [EDTA]
activity at 1000 µM [4]: 99%

O[C@H](CS)[C@H](O)CS (racemic) [DTT, Dithiothreitol]
activity at 1000 µM [3, 5]: 101% | activity at 1000 µM [4, 6]: 86%

OC[C@H]1O[C@@H](O[C@H]2[C@H](O)[C@@H](O)C(O)O[C@@H]2CO)[C@H](O)[C@@H](O)[C@@H]1O (stereo partly drawn) [Cellobiose]
Relative activity (%) [1]: 2% | formation of glucose [1]: scarcely observed | Relative activity (%) [2]: 0% | formation of glucose [2]: scarcely observed

O=S(=O)([O-])[O-].[Zn+2] [ZnSO4]
inhibition of the activity [3]: 37% | Relative activity (%) [3, 5]: 63% | inhibition of the activity [4]: 80% | Relative activity (%) [4, 6]: 20%

[Cl][Fe][Cl] [FeCl2]
Relative activity (%) [3, 5]: 94% | Relative activity (%) [4, 6]: 96%

[Cl-].[Cl-].[Mg+2] [MgCl2]
Relative activity (%) [3, 5]: 100% | Relative activity (%) [4, 6]: 103%

OC[C@H]1O[C@H](OC[C@H]2OC(O)[C@H](O)[C@@H](O)[C@@H]2O)[C@H](O)[C@@H](O)[C@@H]1O (stereo partly drawn) [Isomaltose]
Relative activity (%) [1]: 3% | formation of glucose [1]: scarcely observed | Relative activity (%) [2]: 2% | formation of glucose [2]: scarcely observed

O=S(=O)([O-])[O-].[Mn+2] [MnSO4]
Relative activity (%) [3, 5]: 111% | Relative activity (%) [4, 6]: 108%

OC[C@H]1O[C@@H](OC[C@H]2OC(O)[C@H](O)[C@@H](O)[C@@H]2O)[C@H](O)[C@@H](O)[C@@H]1O (stereo partly drawn) [Gentiobiose]
Relative activity (%) [2]: 2%

OC[C@H]1O[C@H](O[C@H]2[C@H](O)[C@@H](O)[C@H](O)O[C@@H]2CO)[C@H](O)[C@@H](O)[C@@H]1O [Maltose]
Relative activity (%) [1]: 1% | formation of glucose [1]: scarcely observed | Relative activity (%) [2]: 100%

CC(=O)[O-].CC(=O)[O-].[Pb+2] [Pb (CH3 COO)2]
Relative activity (%) [3, 5]: 99% | Relative activity (%) [4, 6]: 93%

O=C(O)CN(CCN(CC(=O)O)CC(=O)O)CC(=O)O [EDTA.2Na]
activity at 1000 µM [3]: 100%

[Ba+2].[OH-].[OH-] [Ba (OH)2]
Relative activity (%) [3, 5]: 100% | Relative activity (%) [4, 6]: 106%

[Ca+2].[Cl-].[Cl-] [CaCl2]
Relative activity (%) [3, 5]: 101% | Relative activity (%) [4, 6]: 102%

OC[C@H]1O[C@@H](O[C@H]2O[C@H](CO)[C@@H](O)[C@H](O)[C@H]2O)[C@H](O)[C@@H](O)[C@@H]1O [Neotrehalose]
Relative activity (%) [1]: 1% | formation of glucose [1]: scarcely observed | Relative activity (%) [2]: 0% | formation of glucose [2]: scarcely observed

O=C(O)c1cc[c]([Hg][Cl])cc1 [PCMB, p (Chloromercuri) benzoic acid]
Relative activity (%) [3, 5]: 20% | Relative activity (%) [4, 6]: 0%

O=[N+]([O-])c1ccc(O[C@H]2O[C@H](CO)[C@@H](O)[C@H](O)[C@H]2O)cc1 [D - glucosideyl - α, p-nitrophenyl-α-D-glucoside]
Relative activity (%) [1]: 2% | formation of glucose [1]: scarcely observed | Relative activity (%) [2]: 0% | formation of glucose [2]: scarcely observed

OC[C@H]1O[C@H](O[C@H]2O[C@H](CO)[C@@H](O)[C@H](O)[C@H]2O)[C@H](O)[C@@H](O)[C@@H]1O [Trehalose]
Relative activity (%) [1]: 100% | Relative activity (%) [2]: 0% | formation of glucose [2]: scarcely observed

O=S(=O)([O-])[O-].[Cu+2] [CuSO4]
Relative activity (%) [3, 5]: 91% | Relative activity (%) [4, 6]: 89%
